Data published in US20230233567A1, “BELVARAFENIB FOR USE IN CANCER TREATMENT” (Hanmi Pharm. Co., Ltd., priority 2020, published 2023).
Where two headings read alike, the source gives them in different places.

Assay: Phase I study plasma pharmacokinetics
Type: in vivo, human
Conditions: for AUC(0-inf) / AUC(0-t) / Cmax / AUC / Vd/F / Tmax: human, plasma, oral; for AUC: read-out: AUC24; for Vd/F: read-out: Vz/F; for Tmax: median, read-out: Tmax
Description: The PK parameters of belvarafenib were estimated in 48 patients in the dose-escalation phase and 35 patients in the dose-expansion phase. In the tables: “AUClast” refers to the area under the plasma concentration-time curve from zero time until the last measurable concentration; “AUC0-∞” refers to area under the plasma concentration-time curve from zero time to infinity; “AUC24” refers to the area under the curve from T0 to T24; “Cmax” refers to the maximal concentration; “Tmax” refers to the time to reach Cmax; “T1/2β” refers to the terminal elimination half-life; “QD” refers to once a day; and “BID” refers to twice a day. […] Mean and coefficient of variation are presented except for Tmax where median and range are presented. One patient in the 200 QD dosing regimen who took concomitant rifampin was removed from the analysis because the AUC and Cmax of the patient were much lower than those of the others in the same cohort, which, without being bound to any particular theory, could have resulted from the drug-metabolizing enzyme induction by rifampin through which belvarafenib is biotransformed.

[1] = Day 1 first dose, 50 mg/day QD, n=3, mean
[2] = Day 1 first dose, 100 mg/day QD, n=3, mean
[3] = Day 1 first dose, 200 mg/day QD, n=6, mean
[4] = Day 1 first dose, 200 mg/day QD, n=7, mean
[5] = Day 1 first dose, 400 mg/day BID, n=11, mean
[6] = Day 1 first dose, 600 mg/day BID, n=7, mean
[7] = Day 1 first dose, 600 mg/day QD, n=6, mean
[8] = Day 1 first dose, 900 mg/day BID, n=8, mean
[9] = Day 1 first dose, 1300 mg/day BID, n=6, mean
[10] = Day 1 first dose, 1600 mg/day BID, n=6, mean
[11] = Multiple administrations Day 17, 50 mg/day QD, n=2, mean
[12] = Multiple administrations Day 22, 100 mg/day QD, n=3, mean
[13] = Multiple administrations Day 22, 200 mg/day QD, n=5, mean
[14] = Multiple administrations Day 22, 200 mg/day QD, n=6, mean
[15] = Multiple administrations Day 22, 400 mg/day BID, n=8, mean
[16] = 50 mg/day, Multiple administrations Day 17, 50 mg/day QD, n=2, mean
[17] = 100 mg/day, Multiple administrations Day 22, 100 mg/day QD, n=3, mean
[18] = 200 mg/day, Multiple administrations Day 22, 200 mg/day QD, n=5, mean
[19] = 200 mg/day, Multiple administrations Day 22, 200 mg/day QD, n=6, mean
[20] = 400 mg/day, Multiple administrations Day 22, 400 mg/day BID, n=8, mean
[21] = 600 mg/day, Multiple administrations Day 22, 600 mg/day BID, n=6, mean

SMILES: Cc1ccc2c(Nc3cccc(Cl)c3F)nccc2c1NC(=O)c1csc2c(N)ncnc12 [Belvarafenib]
- CL/F [1]: 2.5 L/h
- T1/2β [1]: 51.6 h
- CL/F [2]: 2.5 L/h
- T1/2β [2]: 55.3 h
- CL/F [3]: 7.3 L/h
- T1/2β [3]: 57.7 h
- CL/F [4]: 15.4 L/h
- T1/2β [4]: 50.5 h
- CL/F [5]: 7.8 L/h
- T1/2β [5]: 70.7 h
- CL/F [6]: 7.7 L/h
- T1/2β [6]: 86.6 h
- CL/F [7]: 9.9 L/h
- T1/2β [7]: 58.9 h
- CL/F [8]: 5.7 L/h
- T1/2β [8]: 84.3 h
- CL/F [9]: 9.0 L/h
- T1/2β [9]: 77.4 h
- CL/F [10]: 14.5 L/h
- T1/2β [10]: 215.8 h
- CL/F [11]: 0.6 L/h
- T1/2β [11]: 70.7 h
- CL/F [12]: 0.9 L/h
- T1/2β [12]: 106.1 h
- CL/F [13]: 1.3 L/h
- T1/2β [13]: 69.8 h
- CL/F [14]: 2.4 L/h
- T1/2β [14]: 65.1 h
- CL/F [15]: 3.3 L/h
- T1/2β [15]: 41.2 h
- T1/2β (Multiple administrations Day 22, 600 mg/day BID, n=6, mean): 52.3 h
- CL/F (Multiple administrations Day 22, 600 mg/day BID, n=6, mean (CV)): 2.2 (63.3) L/h
- T1/2β (Multiple administrations Day 22, 600 mg/day QD, n=6, mean): 97.7 h
- CL/F (Multiple administrations Day 22, 600 mg/day QD, n=6, mean (CV)): 3.4 (81.8) L/h
- T1/2β (Multiple administrations Day 22, 900 mg/day BID, n=7, mean): 32.3 h
- CL/F (Multiple administrations Day 22, 900 mg/day BID, n=7, mean (CV)): 3.8 (50.7) L/h
- T1/2β (Multiple administrations Day 22, 1300 mg/day BID, n=6, mean): 66.4 h
- CL/F (Multiple administrations Day 22, 1300 mg/day BID, n=6, mean (CV)): 2.7 (54.7) L/h
- T1/2β (Multiple administrations Day 22, 1600 mg/day BID, n=4, mean): 42.7 h
- CL/F (Multiple administrations Day 22, 1600 mg/day BID, n=4, mean (CV)): 14.8 (61.2) L/h
- mean plasma concentration versus dose (from 50 mg QD to 650 mg BID): linearity in a dose-proportional manner
- AUC(0-inf) [16]: 88800 ng·h/mL
- AUC(0-t) [16]: 18900 ng·h/mL
- Cmax [16]: 1120 ng/mL
- AUC [16]: 18900 ng·h/mL
- Vd/F [16]: 57.6 L
- Tmax (50 mg/day, Multiple administrations Day 17, 50 mg/day QD, n=2): 3 h
- AUC(0-inf) [17]: 349000 ng·h/mL
- AUC(0-t) [17]: 41900 ng·h/mL
- Cmax [17]: 1990 ng/mL
- AUC [17]: 42000 ng·h/mL
- Vd/F [17]: 62.7 L
- Tmax (100 mg/day, Multiple administrations Day 22, 100 mg/day QD, n=3): 5 h
- AUC(0-inf) [18]: 239000 ng·h/mL
- AUC(0-t) [18]: 48200 ng·h/mL
- Cmax [18]: 2520 ng/mL
- AUC [18]: 48200 ng·h/mL
- Vd/F [18]: 116 L
- Tmax (200 mg/day, Multiple administrations Day 22, 200 mg/day QD, n=5): 3.2 h
- AUC(0-inf) [19]: 203000 ng·h/mL
- AUC(0-t) [19]: 41600 ng·h/mL
- Cmax [19]: 2210 ng/mL
- AUC [19]: 41700 ng·h/mL
- Vd/F [19]: 178 L
- Tmax (200 mg/day, Multiple administrations Day 22, 200 mg/day QD, n=6): 3.1 h
- AUC(0-inf) [20]: 207000 ng·h/mL
- AUC(0-t) [20]: 67500 ng·h/mL
- Cmax [20]: 3210 ng/mL
- AUC [20]: 68900 ng·h/mL
- Vd/F [20]: 157 L
- Tmax (400 mg/day, Multiple administrations Day 22, 400 mg/day BID, n=8): 13.1 h
- AUC(0-inf) [21]: 507000 ng·h/mL
- AUC(0-t) [21]: 116000 ng·h/mL
- Cmax [21]: 5700 ng/mL
- AUC [21]: 120000 ng·h/mL
- Vd/F [21]: 122 L
- Tmax (600 mg/day, Multiple administrations Day 22, 600 mg/day BID, n=6): 3.4 h
